Paper PMC8739956 (Frontiers in Oncology, 2021)
“Also recorded” adds a separate entry of the source. Read-outs that look alike come from different tables or passages of the source.

Legend:
DLBCL [1] = settings: 14-d ibrutinib therapy before TEDDI-R; cited from earlier work
[2] = cited from earlier work
[3] = cited from earlier work; remark: listed apart in the source
[4] = parameters: method as in PMID 32583848; settings: cited from earlier work; for Mean CSF (trough concentration): PCNSL patients
[5] = LC-MS/MS quantification of zanubrutinib in time-matched plasma and CSF samples of patients; type: in vivo, human; settings: for concentration at 12 h: read-out: Trough CSF concentration
Procedure: Zanubrutinib is absorbed rapidly with a median time to maximum concentration of 2 h. Blood and CSF samples were collected at 2 or 3 h after the oral administration of zanubrutinib at 160 mg. Zanubrutinib administration was performed for more than 7 d. Additional plasma and CSF specimens for trough concentration testing were collected just before zanubrutinib administration (i.e., 12 h after the last zanubrutinib dose). Biological samples were stored at −20°C for a maximum of one month before analysis.
Zanubrutinib in CSF and sodium heparin plasma samples was quantified by LC-MS/MS. Zanubrutinib standard was obtained from Beigene (Beijing, China). Methanol, methanoic acid, and acetonitrile (high-performance liquid chromatography gradient grade) were purchased from Fisher Scientific, USA. Ultrapure water was obtained using a Milli-Q purification system (Millipore, MA, USA). Control plasma and CSF samples for standards and quality control were obtained from patients treated in the department of hematology of PUMCH. The detailed LC-MS/MS procedure is described in the Supplementary Material .
Zanubrutinib solutions were prepared at a concentration of 1 mg/ml in methanol and further diluted with methanol to obtain working solutions at concentrations of 100–1,000,000 pg/ml. Biological samples (50 µl) were mixed with 10 µl of methanol and 100 µl of acetonitrile. The mixed samples were centrifuged at 2,500 rpm for 3 min at room temperature and at 17,500 rpm for 10 min at 2°C–8°C. The supernatant (120 μl) was then injected into the chromatography system at room temperature.
The analytes were analyzed by reverse-phase chromatography using an UPLC XevoTQ-XS system (Waters Corp., Milford, MA, USA) equipped with an ACQUUITY UPLC®BEH C18 column (2.1×50 mm, 1.7 μm; Waters Corp.). The mobile phase consisted of 0.1% formic acid in acetonitrile and ultrapure water. A mass spectrometer was used in positive mode with an electrospray ionization source. Multiple reaction monitoring mode was used to detect analytes and internal standards.
To create a stock solution of zanubrutinib with a concentration of 1 mg/ml, zanubrutinib (4.55 mg) was added to methanol (4.55 ml). The standard working solution and quality control standard solution of zanubrutinib were then obtained by diluting the stock solution to 1 μg/ml with methanol. To establish the standard curve, the blank control samples of plasma and CSF were added into 50-μl EP tubes followed by the addition of 10 μl standard working solution with different concentrations (see the table below).
The concentrations of analytes in CSF and plasma samples were obtained from the calibration curve constructed by plotting the peak area ratio of each analyte to the internal standard against the concentration. The analyte concentrations in the samples were calculated by linear regression.

[6] = tested on: diffuse large B-cell lymphoma (DLBCL); test: Clinical response of DLBCL patients (Lugano 2014 / 2005 IELSG criteria); type: in vivo, human; settings: for MRI lesion in the cerebellum: case 5, zanubrutinib monotherapy
Procedure: Patients with treatment-naive and relapsed/refractory DLBCL were enrolled in this study. […] The exclusion criteria were as follows: severe disease complications or serious comorbidities; active infection; uncontrolled bleeding events; and pregnancy or lactation in women.
The dose of zanubrutinib was fixed at 160 mg twice per day in all patients. Treatment duration and the combined drugs/regimens were decided by the clinicians.
Four regimens were evaluated in this study: Regimen 1, zanubrutinib + rituximab in primary vitreoretinal lymphoma (PVRL) (zanubrutinib at 160 mg twice per day until disease progression or intolerance and rituximab at 375 mg/m^2 every 21 days); Regimen 2, zanubrutinib combined with high-dose methotrexate with or without cytarabine (HD-MTX regimen/MA regimen) in CNSL (methotrexate at 3.5–5.0 g/m^2 d1 and cytarabine at […] every 12 h on d2 and d3, every 21 days per cycle); Regimen 3, zanubrutinib combined with dexamethasone, ifosfamide, carboplatin, and etoposide (DICE) or dexamethasone, cytarabine, and cis-platinum (DHAP) in relapsed and refractory patients every 21 days per cycle as prescribed for the salvage chemotherapy of autologous stem cell transplantation (ASCT); and Regimen 4, zanubrutinib combined with rituximab, cyclophosphamide, epirubicin, vindesine, and prednisone (R-CHOP) for eight cycles as an initial treatment in IVLBCL.
The clinical response was assessed based on the Lugano 2014 Criteria for DBLCL and 2005 IELSG Criteria for PCNSL ([24], [25]). AEs were recorded and assessed according to the Common Terminology Criteria for Adverse Events (CTCAE) v4.0.
Continuous variables were expressed as median and range and compared by Mann–Whitney U-test. Categorical variables were reported as percentages and compared by chi-squared test. The duration of response (DOR) was determined using the Kaplan–Meier method. Statistical analyses were performed with SPSS 25.0 (IBM, NY, USA) or Prism 7.0 (GraphPad, CA, USA). P < 0.05 was considered statistically significant.

IL-10 = test: CSF IL-10 concentration during treatment; type: in vivo, human; settings: case 6, zanubrutinib monotherapy for 7 d
DLBCL [7] = settings: cited from earlier work
TMD8 = settings: ABC DLBCL lines in vitro (TMD8); cited from earlier work
[8] = parameters: method as in package insert; settings: ref package insert, cited from earlier work
CNSL = settings: high risk group, prophylaxis; cited from earlier work
[9] = relapsed non-GCB DLBCL, phase 2, 41 patients

SMILES: C=CC(=O)N1CCC[C@@H](n2nc(-c3ccc(Oc4ccccc4)cc3)c3c(N)ncnc32)C1 [Ibrutinib, ibrutinib]
- Patients with disease improvement after monotherapy (DLBCL [1]): 94%
- Protein binding ([2]; ibrutinib): 97.3%
- Mean Plasma ([3]; 560mg qd): 53.7 ng/mL
- Mean Plasma ([3]; 700mg qd): 217.4 ng/mL
- Mean Plasma ([3]; 840mg qd): 875.6 ng/mL

SMILES: CC#CC(=O)N1CC[C@@H](n2c(=O)n(-c3ccc(Oc4ccccc4)cc3)c3c(N)ncnc32)C1 [Tirabrutinib]
- Mean CSF (trough concentration) ([4]; 320mg qd): 2.19 ng/mL
- Mean CSF (trough concentration) ([4]; 320mg qd, listed as tirabrutinib): 2.19 ± 0.476 ng/mL
- Mean Plasma ([4]; 320mg qd): 16.3 ng/mL
- Mean CSF (trough concentration) ([4]; 480mg qd): 14.0 ng/mL
- Mean CSF (trough concentration) ([4]; 480mg qd, listed as tirabrutinib): 14.0 ± 8.92 ng/mL
- Mean Plasma ([4]; 480mg qd): 77.0 ng/mL

SMILES: C=CC(=O)N1CCC([C@@H]2CCNc3c(C(N)=O)c(-c4ccc(Oc5ccccc5)cc4)nn32)CC1 [Zanubrutinib]
- Mean CSF ([5]; 160mg bid): 2.94 ng/mL
- Mean Plasma ([5]; 160mg bid): 143.2 ng/mL
- Samples with peak CSF concentration above the IC50 values ([5]; 22/23 samples): 95.7%
- Corrected CSF/plasma ratio ([5]; corrected for 94% protein binding, entire series, 23 samples): 42.7 ± 27.7%
- Corrected CSF/plasma ratio ([5]; corrected for 94% protein binding, entire series, 23 samples, listed as zanubrutinib): 42.7% ± 27.7%
- Mean plasma concentration ([5]; entire series, 23 samples, peak time point 2-3 h after 160 mg oral, 160 mg twice per day): 143.1906 ± 93.3027 ng/mL
- concentration at 2 h ([5]; human, CSF, oral, 160 mg, 2 h after administration, 10 samples, read-out: Mean CSF concentration): 4.12 ± 2.86 ng/mL
- concentration at 3 h ([5]; human, CSF, oral, 160 mg, 3 h after administration, 13 samples, read-out: Mean CSF concentration): 2.43 ± 2.03 ng/mL
- concentration at 12 h ([5]; human, CSF, oral, 160 mg, case 1, 12 h after the last dose): 0.267 ng/mL
- concentration at 12 h ([5]; human, CSF, oral, 160 mg, case 3, 12 h after the last dose): 5.02 ng/mL
- Kp at 2 h ([5]; human, CSF/plasma, oral, 160 mg, 2 h after administration, 10 samples, read-out: Corrected CSF/plasma ratio): 0.412 ± 0.325
- Kp at 3 h ([5]; human, CSF/plasma, oral, 160 mg, 3 h after administration, 13 samples, read-out: Corrected CSF/plasma ratio): 0.433 ± 0.265
- Kp ([5]; human, CSF/plasma, oral, 160 mg, corrected for 94% protein binding, entire series, 23 samples, read-out: Corrected CSF/plasma ratio): ~0.4
- Kp ([5]; human, CSF/plasma, oral, 160 mg, corrected for 94% protein binding, entire series, read-out: Corrected CSF/plasma ratio, range): 0.086 to 1.06
- Kp ([5]; human, CSF/plasma, oral, 160 mg, not corrected for protein binding, read-out: CSF/plasma ratio): ~0.02
- Kp ([5]; human, CSF/plasma, oral, 160 mg, not corrected for protein binding, read-out: CSF/plasma ratio, range): 0.0061 to 0.0583
- Kp ([5]; human, CSF/plasma, oral, 160 mg, six patients with repeated samples in different cycles, read-out: CSF/plasma ratio, range among patients): 0.105 to 0.781
- concentration at 2 h ([5]; human, plasma, oral, 160 mg, 2 h after administration, 10 samples, read-out: Mean plasma concentration): 183 ± 91.1 ng/mL
- concentration at 3 h ([5]; human, plasma, oral, 160 mg, 3 h after administration, 13 samples, read-out: Mean plasma concentration): 126 ± 91.6 ng/mL
- MRI lesion in the cerebellum [6]: shrank and disappeared within three weeks
- MRI lesion in the cerebellum ([6]; listed as zanubrutinib): the mass shrank and disappeared
- Response to monotherapy as lead-in therapy ([6]; two relapsed PCNSL cases, monotherapy before combination chemotherapy): rapid and dramatic response; also recorded: significant disease control within 14 d
- CSF IL-10 concentration (IL-10): dramatically decreased
- Protein binding rate ([2]; zanubrutinib, no reference given): 94%
- Patients who achieved remission (DLBCL [7]; among 75 patients with non-Hodgkin lymphoma (including 23 with DLBCL)): 14
- ORR (DLBCL [7]; relapsed non-GCB DLBCL, phase 2, 41 patients, median follow-up 6.8 months): 29.3%
- AEs leading to treatment discontinuation, patients (DLBCL [7]; [9]): four
- Complete response rate (DLBCL [7]; [9]): 17.1%
- IC50 (TMD8): 0.4 nM
- Median time to maximum concentration [8]: 2 h
- Median time to maximum concentration ([8]; listed as zanubrutinib): approximately 2 h

SMILES: CN(Cc1cnc2nc(N)nc(N)c2n1)c1ccc(C(=O)N[C@@H](CCC(=O)O)C(=O)O)cc1 [high-dose MTX, methotrexate]
- CNS relapsing rate (CNSL): > 10%
